In patent US11001562B2, “Near-infrared fluorescent nerve contrast agents and methods of use thereof” (Beth Israel Deaconess Medical Center, priority 2013, dated 2021):
Entries after “also recorded” stand apart in the source; their conditions may differ.

Legend:
[1] = test system: recurrent laryngeal nerve (RLN), brachial plexus (BP) and sciatic nerve (SN) of Yorkshire pigs; assay: Nerve targeting in large animals, intraoperative FLARE imaging; format: in vivo, pig; conditions: iv
Protocol: 20 μmol (0.17 mg/kg) of Oxazine 4 was injected intravenously into 35 kg Yorkshire pigs, and the SBR of nerves to the specified surrounding tissue was measured at different time points (T=0, 15, 30, 60, 120, 180, and 240 min). B) Real-time intraoperative fluorescence images of RLN (top), BP (middle), and SN (bottom) acquired at different time points (T=0, 15, 30, 60, 120, 180, and 240 min). Ad=adipose tissue; Mu=muscle; TEG=tracheoesophageal groove; Th=thyroid; Tr=trachea. Scale bars=1 cm. Fluorescence images have identical exposure times (500 msec) and normalizations. C) Fluorescence microscopic images of cryosectioned RLN, BP, and SN. Samples were obtained after injecting 20 μmol of Oxazine 4 into Yorkshire pigs 4 h prior to resection. Shown are representative images (N=5) of H&E (left) and NIR fluorescence (right) images. Scale bars=[…]. All NIR fluorescence images have identical exposure times and normalizations.
Animals were housed in an AAALAC-certified facility. Animal studies were performed under the supervision of Beth Israel Deaconess Medical Center's Institutional Animal Care and Use Committee (IACUC) in accordance with approved institutional protocols (#101-2011 for rodents and #046-2010 for pigs). […] Following anesthesia, electrocardiogram, heart rate, pulse oximetry, and body temperature were monitored throughout surgery.
Initial in vivo screening occurred in rats based on our previous study of BMB (Supplementary Methods) (25). […] The fluorescence signal in nervous tissues and signal-to-background ratio (SBR) compared to neighboring muscle (Mu) were obtained over the period of imaging. […]
The fluorescence intensity (FI) and background (BG) intensity of a region of interest (ROI) over each nerve/tissue were calculated and quantified using custom FLARE^a software. The FI of the RLN, BP, and SN at the optimal dose and time point were quantified to measure tissue-specific targeting. […]

[2] = test system: rat brachial plexus and sciatic nerves; assay: In vivo nerve-specificity screening with FLARE imaging
Source text: The dual-NIR channel FLARE^a imaging system has been described in detail previously (26-28). In this study, a 670 nm excitation was used at a fluence rate of 4 mW/cm^2, with white light (400-650 nm) at 40,000 1×. Color and NIR fluorescence images were acquired simultaneously with custom software at rates up to 15 Hz over a 15 cm diameter field of view. A pseudo-colored lime green was used for NIR fluorescence in the color-NIR merged images. The imaging system was positioned at a distance of 18 inches from the surgical field.
Initial in vivo screening occurred in rats based on our previous study of BMB (Supplementary Methods) (25). For kinetic and dose-response studies, 50-400 nmol (0.8-6.3 mg/kg) of Oxazine 4 was injected intravenously into mice and measurements taken over 24 h. Control images were acquired prior to injecting NIR fluorophores. The fluorescence signal in nervous tissues and signal-to-background ratio (SBR) compared to neighboring muscle (Mu) were obtained over the period of imaging. For the large animal study, the optimal dose found in mice (200-400 nmol per mouse) was used in pigs by scaling to body surface area (29, 30).
Sprague-Dawley (SD) male rats weighing 250-300 g were purchased from Charles River Laboratories (Wilmington, Mass.). BMB, Oxazine 1, Oxazine 4, Oxazine 170, Oxazine 750, and Rhodamine 800 were initially screened to investigate nerve specificity in rats. For the initial screening, we administered a relatively high dose (2 mg/kg; 1 μmol) of each fluorophore intravenously. 4 h after injection, brachial plexus (BP) and sciatic nerve (SN) were imaged using the intraoperative FLARE^a system for in vivo nerve-specific fluorophores screening.

[3] = comparison of structures in discussion

`CC/N=c1/cc2oc3cc(NCC)c(C)cc3nc-2cc1C` [Oxazine 4] was tested, and the “signal retention in BP and SN post injection” value [1] was “up to 3 h”, the “time of maximal SBR, BP and SN” value [1] was 1 h and the “time of maximal SBR, RLN” value ([1]; RLN vs surrounding tissue) was 3 h. For the same molecule, the “nerve-specific fluorescence signal in vivo” value ([2]; SD rats, 2 mg/kg (1 μmol) iv, 4 h after injection, brachial plexus and sciatic nerve, 2 mg/kg) was “highest nerve-specific fluorescence signal; also recorded: higher nerve-specific fluorescence signal”, the “background (muscle and adipose tissue) fluorescence signal in vivo” value ([2]; SD rats, 2 mg/kg (1 μmol) iv, 4 h after injection, 2 mg/kg) was “lowest background; also recorded: lower background” and the “adipose signal (discussion summary)” value [2, 3] was “moderate adipose”. The “nerve signal (discussion summary)” value [2, 3] was “high nerve signal”.
